Literature values as cited in paper PMC4871512, “Drug-Based Lead Discovery: The Novel Ablative Antiretroviral Profile of Deferiprone in HIV-1-Infected Cells and in HIV-Infected Treatment-Naive Subjects of a Double-Blind, Placebo-Controlled, Randomized Exploratory Trial” (PLoS ONE, 2016).

How the values were obtained:
[1] = test system: human or mouse epithelia; parameters: method as in PMID 24086341; conditions: concentrations that ablate yeast and HIV-infected cells; cited from earlier work
[2] = test system: HIV-infected cell lines and HIV-infected primary cells; conditions: cited from earlier work
[3] = test system: DOHH; parameters: method as in PMID 12115536; conditions: clinically relevant concentrations; cited from earlier work
[4] = test system: HIV-1; parameters: method as in PMID 9715844; conditions: cited from earlier work
[5] = test system: productively infected macrophages; parameters: method as in PMID 7973634; conditions: cited from earlier work
[6] = test system: HIV-1; parameters: method as in PMID 8793010; conditions: culture; cited from earlier work
[7] = test system: HIV-1; parameters: method as in PMID 8648207, PMID 9498441, PMID 9952363; conditions: after 12 weeks on monotherapy; cited from earlier work
[8] = clinically relevant concentrations

In the case of `Cc1cc(C2CCCCC2)n(O)c(=O)c1` [ciclopirox, 6-cyclohexyl-1-hydroxy-4-methylpyridin-2[1H]-one], the “acute toxicity at human or mouse epithelia” value [1] is listed as “does not cause acute toxicity”, the “off-drug re-emergence of HIV-1 RNA synthesis, compared with deferiprone” value ([2]; ciclopirox at 30 μM) is listed as “gave similar results” and the “antiretroviral activity of the paired 1,2-HOPO chelators” value [2] is listed as “antiretrovirally active”. The “viral breakthrough during monotherapy” value ([2]; up to 5 weeks of monotherapy) was “neither allowed breakthrough”.

In the case of `CC(=O)N(O)CCCCCNC(=O)CCC(=O)N(O)CCCCCNC(=O)CCC(=O)N(O)CCCCCN` [deferoxamine], the “suppression of DOHH activity” value [3] is given as “does not achieve maximal suppression of DOHH activity”, the “ablation of HIV-infected cells” value [2, 8] is given as “does not ablate HIV-infected cells” and the “antiretroviral activity in culture” value [2, 8] is given as “does not display antiretroviral activity in culture”. The “dose-related antiretroviral effect in persons living with HIV-1” value [4] was “does not display a dose-related antiretroviral effect”.

For `NC(=O)NO` [hydroxyurea], the “HIV-1 DNA” value [5] is listed as “depleted HIV-1 DNA”, the viral breakthrough [5] is listed as “blocked breakthrough during three weeks of treatment” and the “viral rebound after cessation” value [5] is listed as “did not allow rebound after cessation”.

For `NC(Cn1ccc(=O)c(O)c1)C(=O)O` (stereo not drawn) [mimosine], the “ribosomal presence of gag mRNA, amount of intra- and extracellular p24, budding of viral particles” value ([2]; treated HIV-infected cells) is given as “suppress”.

For `Cc1ccnc2c1NC(=O)c1cccnc1N2C1CC1` [nevirapine], the “time to viral breakthrough during monotherapy” value [6] is listed as at least 4 days.

For `Cc1cn([C@H]2C[C@H](N=[N+]=[N-])[C@@H](CO)O2)c(=O)[nH]c1=O` [zidovudine], the “time to viral breakthrough during monotherapy” value [6] is given as at least 4 days and the viral load decline [7] is given as -0.3 log10.
